Laboratory results taken from paper PMC5909127, “Optimization of a “bump-and-hole” approach to allele-selective BET bromodomain inhibition” (Chemical Science, 2018).

Legend:
[1] = molecular target: T1, BRD2 BD1 L/V (Homo sapiens, UniProt P25440, L110V); assay: competitive AlphaLISA; assay type: binding
[2] = molecular target: T2, BRD3 BD1 WT (Homo sapiens, UniProt Q15059); assay: ITC; assay type: binding
[3] = molecular target: T3, BRD2 BD2 L/V (Homo sapiens, UniProt P25440, L383V); assay: competitive AlphaLISA; assay type: binding
T3 sequence (P25440 344-455 L383V): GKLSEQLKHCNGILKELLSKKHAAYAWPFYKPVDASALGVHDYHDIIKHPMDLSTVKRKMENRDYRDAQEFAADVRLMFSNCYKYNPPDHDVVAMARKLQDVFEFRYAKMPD

[4] = molecular target: T4, BRD3 BD2 L/V (Homo sapiens, UniProt Q15059, L345V); assay: ITC; assay type: binding
T4 sequence (Q15059 306-416 L345V limits assumed): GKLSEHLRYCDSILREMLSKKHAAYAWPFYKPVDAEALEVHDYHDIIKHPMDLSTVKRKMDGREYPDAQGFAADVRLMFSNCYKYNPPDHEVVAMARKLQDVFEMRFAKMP

[5] = molecular target: BRD4 BD2 WT (Homo sapiens, UniProt O60885); assay: ITC; assay type: binding
[6] = molecular target: BRD2: WT/WT (Homo sapiens, UniProt P25440); assay: ITC, BRD2 tandem construct
BRD2: WT/WT, sequence (P25440 73-455): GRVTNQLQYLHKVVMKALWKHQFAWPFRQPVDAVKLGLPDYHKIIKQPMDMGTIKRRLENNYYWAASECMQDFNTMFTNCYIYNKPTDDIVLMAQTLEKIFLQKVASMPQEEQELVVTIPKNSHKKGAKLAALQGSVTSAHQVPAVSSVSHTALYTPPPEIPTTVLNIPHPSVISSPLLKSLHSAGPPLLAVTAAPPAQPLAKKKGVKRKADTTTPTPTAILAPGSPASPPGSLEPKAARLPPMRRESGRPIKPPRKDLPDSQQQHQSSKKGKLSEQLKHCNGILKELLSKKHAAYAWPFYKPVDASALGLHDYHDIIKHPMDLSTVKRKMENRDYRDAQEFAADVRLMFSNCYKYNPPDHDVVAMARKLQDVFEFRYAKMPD

[7] = molecular target: T3, BRD2 BD2 L/V; assay: ITC; assay type: binding
[8] = molecular target: T1, BRD2 BD1 L/V; assay: ITC; assay type: binding
[9] = molecular target: T5, BRD4 BD1 L/V (Homo sapiens, UniProt O60885, L94V); assay: ITC; assay type: binding; conditions: ITC
[10] = molecular target: WT BET bromodomains (BD1 and BD2 of BRD2, BRD3 and BRD4); assay: competitive AlphaLISA (Bio-JQ1 displacement); assay type: binding, human; conditions: mean and SD of all somatic bromodomains; active enantiomer concentration
[11] = molecular target: T2, BRD3 BD1 WT; assay: competitive AlphaLISA; assay type: binding
[12] = molecular target: T6, BRD4 BD2 L/V (Homo sapiens, UniProt O60885, L387V); assay: ITC; assay type: binding
[13] = Intrinsic Clearance; conditions: mouse liver microsomes
[14] = molecular target: BRDT BD1 WT (Homo sapiens, UniProt Q58F21); assay: competitive AlphaLISA; assay type: binding
[15] = molecular target: T7, BRD4 BD1 WT (Homo sapiens, UniProt O60885); assay: ITC; assay type: binding
[16] = molecular target: BRD2 BD1 WT (Homo sapiens, UniProt P25440); assay: ITC; assay type: binding; conditions: ITC
BRD2 BD1 WT, sequence (P25440 71-176): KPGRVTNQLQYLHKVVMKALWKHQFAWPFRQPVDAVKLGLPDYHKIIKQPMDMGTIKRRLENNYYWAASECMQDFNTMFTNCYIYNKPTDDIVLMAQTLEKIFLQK

[17] = molecular target: WT somatic BET bromodomains; assay: ITC; conditions: mean and SD of all somatic bromodomains
[18] = molecular target: BRD2: LV/LV (Homo sapiens, UniProt P25440, L110V/L383V); assay: ITC, BRD2 tandem construct
BRD2: LV/LV, sequence (P25440 73-455 L110V/L383V limits assumed): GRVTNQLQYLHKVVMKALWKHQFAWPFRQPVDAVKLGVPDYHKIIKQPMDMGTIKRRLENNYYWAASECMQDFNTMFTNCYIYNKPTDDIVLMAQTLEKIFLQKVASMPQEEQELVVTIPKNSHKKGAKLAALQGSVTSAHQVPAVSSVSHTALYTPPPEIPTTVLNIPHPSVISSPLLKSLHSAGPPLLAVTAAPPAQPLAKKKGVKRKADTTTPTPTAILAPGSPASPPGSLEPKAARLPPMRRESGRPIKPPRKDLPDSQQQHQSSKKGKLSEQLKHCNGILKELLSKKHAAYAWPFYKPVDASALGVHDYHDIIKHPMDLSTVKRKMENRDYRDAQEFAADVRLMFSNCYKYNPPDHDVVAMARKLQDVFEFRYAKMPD

[19] = system: L/V somatic BET bromodomains; assay: ITC; conditions: L/V minus WT
[20] = molecular target: T6, BRD4 BD2 L/V; assay: competitive AlphaLISA; assay type: binding
[21] = in vitro; conditions: PAMPA, pH 7.4
[22] = molecular target: T5, BRD4 BD1 L/V; assay: competitive AlphaLISA; assay type: binding; conditions: AlphaLISA pIC50 Value BRD4 BD1 L/V
[23] = molecular target: T8, BRD3 BD1 L/V (Homo sapiens, UniProt Q15059, L70V); assay: competitive AlphaLISA; assay type: binding
T8 sequence (Q15059 24-144 L70V limits assumed): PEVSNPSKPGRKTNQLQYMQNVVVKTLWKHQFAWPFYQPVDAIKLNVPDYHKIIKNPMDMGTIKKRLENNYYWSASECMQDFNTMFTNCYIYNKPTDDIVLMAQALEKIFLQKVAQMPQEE

[24] = molecular target: T9, BRD2 BD2 WT (Homo sapiens, UniProt P25440); assay: ITC; assay type: binding
T9 sequence (P25440 344-455): as the sequence (P25440 344-455 L383V) above, with V40L counted along it

[25] = molecular target: T8, BRD3 BD1 L/V; assay: ITC; assay type: binding
[26] = molecular target: T10, BRD3 BD2 WT (Homo sapiens, UniProt Q15059); assay: competitive AlphaLISA; assay type: binding
T10 sequence (Q15059 306-416): as the sequence (Q15059 306-416 L345V limits assumed) above, with V40L counted along it

[27] = Plasma Half-life; conditions: BALB/c, mouse, pH 7.4
[28] = molecular target: BRDT BD2 WT (Homo sapiens, UniProt Q58F21); assay: competitive AlphaLISA; assay type: binding
[29] = molecular target: T7, BRD4 BD1 WT; assay: competitive AlphaLISA; assay type: binding; conditions: AlphaLISA pIC50 Value BRD4 BD1 WT
[30] = molecular target: BRDT BD1 L/V (Homo sapiens, UniProt Q58F21, L63V); assay: competitive AlphaLISA; assay type: binding
[31] = molecular target: T4, BRD3 BD2 L/V; assay: competitive AlphaLISA; assay type: binding
[32] = molecular target: BRD2: WT/LV (Homo sapiens, UniProt P25440, L383V); assay: ITC, BRD2 tandem construct
BRD2: WT/LV, sequence (P25440 73-455 L383V): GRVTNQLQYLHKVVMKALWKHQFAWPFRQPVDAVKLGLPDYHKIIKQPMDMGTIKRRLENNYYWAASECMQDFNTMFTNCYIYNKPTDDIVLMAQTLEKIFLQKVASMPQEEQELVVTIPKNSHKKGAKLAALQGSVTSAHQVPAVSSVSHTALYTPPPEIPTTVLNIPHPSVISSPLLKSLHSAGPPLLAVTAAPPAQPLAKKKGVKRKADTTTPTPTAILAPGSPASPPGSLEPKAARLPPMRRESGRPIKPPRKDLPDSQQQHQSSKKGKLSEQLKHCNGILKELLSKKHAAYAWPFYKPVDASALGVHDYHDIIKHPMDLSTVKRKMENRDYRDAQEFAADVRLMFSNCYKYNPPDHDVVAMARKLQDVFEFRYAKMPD

[33] = system: L/V BET bromodomains (BD1 and BD2 of BRD2, BRD3 and BRD4); assay: competitive AlphaLISA (Bio-JQ1 displacement); assay type: binding, human; conditions: L/V minus WT
[34] = molecular target: T9, BRD2 BD2 WT; assay: competitive AlphaLISA; assay type: binding
[35] = molecular target: BRD2: LV/WT (Homo sapiens, UniProt P25440, L110V); assay: ITC, BRD2 tandem construct
BRD2: LV/WT, sequence (P25440 73-455 L110V limits assumed): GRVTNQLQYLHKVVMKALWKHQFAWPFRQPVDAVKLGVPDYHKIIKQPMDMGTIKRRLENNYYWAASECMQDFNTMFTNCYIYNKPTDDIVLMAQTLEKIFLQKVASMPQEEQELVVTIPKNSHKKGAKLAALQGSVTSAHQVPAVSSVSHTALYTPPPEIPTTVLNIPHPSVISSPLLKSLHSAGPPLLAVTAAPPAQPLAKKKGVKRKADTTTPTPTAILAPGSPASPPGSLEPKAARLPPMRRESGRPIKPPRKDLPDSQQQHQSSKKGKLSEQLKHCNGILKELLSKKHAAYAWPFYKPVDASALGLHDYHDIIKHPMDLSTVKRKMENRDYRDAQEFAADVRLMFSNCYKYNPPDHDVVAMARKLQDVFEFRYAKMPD

[36] = molecular target: T10, BRD3 BD2 WT; assay: ITC; assay type: binding

T1 sequence (P25440 71-176 L110V limits assumed): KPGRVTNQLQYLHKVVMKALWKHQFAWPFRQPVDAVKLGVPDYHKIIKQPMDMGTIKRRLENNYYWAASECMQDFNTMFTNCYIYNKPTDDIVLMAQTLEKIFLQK
T2 sequence (Q15059 24-144): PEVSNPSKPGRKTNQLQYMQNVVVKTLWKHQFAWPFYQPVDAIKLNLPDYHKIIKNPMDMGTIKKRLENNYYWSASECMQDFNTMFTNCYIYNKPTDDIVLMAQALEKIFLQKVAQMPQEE

CC[C@@H](C(=O)OC)[C@@H]1N=C(c2ccc(Cl)cc2)c2cc(OC)ccc2-n2c(C)nnc21 (relative stereo) [Compound 4]
IC50 [1]: 316 nM
Kd [2]: 3300 nM
ΔH BRD3 BD1 WT ([2]; ITC): -4.9 kcal/mol
N BRD3 BD1 WT ([2]; ITC stoichiometry): 0.81
IC50 [3]: 158 nM
Kd [4]: 100 nM
ΔH BRD3 BD2 L/V ([4]; ITC): -9.5 kcal/mol
Kd [5]: 35000 nM
ΔH BRD4 BD2 WT ([5]; ITC): -3.4 kcal/mol
Kd [6]: 3800 ± 1100 nM
Kd [7]: 50 nM
ΔH BRD2 BD2 L/V ([7]; ITC): -8.5 kcal/mol
Kd [8]: 240 nM
ΔH BRD2 BD1 L/V ([8]; ITC): -12.6 kcal/mol
ΔH BRD4 BD1 L/V [9]: -10.3 kcal/mol
Kd ([9]; Kd BRD4 BD1 L/V, 30°C): 160 nM
AlphaLISA pIC50 ± SD WT [10]: 5.0 ± 0.1
IC50 [11]: 6310 nM
Kd [12]: 330 nM
ΔH BRD4 BD2 L/V ([12]; ITC): -7.9 kcal/mol
CL int [13]: 1.5 ml min^–1 g^–1
IC50 [14]: 15800 nM
Kd [15]: 2500 nM
ΔH BRD4 BD1 WT ([15]; ITC): -2.6 kcal/mol
N BRD4 BD1 WT ([15]; ITC stoichiometry): 0.99
ΔH BRD2 BD1 WT [16]: -5.3 kcal/mol
ITC pKd ± SD WT [17]: 5.1 ± 0.5
Kd [18]: 140 ± 10 nM
ITC pKd ± SD Δ [19]: 1.8 ± 0.4
IC50 [20]: 251 nM
Papp [21]: 15.3 ×10⁻⁶ cm/s
IC50 [22]: 251 nM
IC50 [23]: 100 nM
Kd [24]: 3300 nM
ΔH BRD2 BD2 WT ([24]; ITC): -1.2 kcal/mol
N BRD2 BD2 WT ([24]; ITC stoichiometry): 0.91
Kd [25]: 80 nM
ΔH BRD3 BD1 L/V ([25]; ITC): -14.1 kcal/mol
IC50 [26]: 10000 nM
half-life at 50 µM [27]: > 3 h
IC50 [28]: 15800 nM
IC50 [29]: 7940 nM
IC50 [30]: 501 nM
IC50 [31]: 100 nM
Kd [32]: 620 ± 110 nM
AlphaLISA pIC50 ± SD Δ [33]: 1.7 ± 0.2
IC50 [34]: 10000 nM
Kd [35]: 570 ± 50 nM
ΔH BRD3 BD2 WT ([36]; ITC): -3.8 kcal/mol
N BRD3 BD2 WT ([36]; ITC stoichiometry): 0.85
